This passage reports IC50 results from patent US5324724A (priority 1990, dated 1994).

pIC50: −log10 of the molar value. Like-named read-outs stand apart in the source and are kept apart here.

Test [1] concerns the target muscarinic receptors. Briefly: Displacement of muscarinic agonist 3H-Oxotremorine-M (3H-OXO-M) binding, cerebral cortex membranes. Set-up: species or system Hooded Lister rats. The following applies: rat cerebral cortex; 2 nM 3H-OXO-M; 37° C., 30 min; E3 as hydrochloride salt, all others as oxalate salts.
For test [2], the target named is muscarinic receptors. The class given is binding, Hooded Lister rats. The following applies: rat cerebral cortex; 0.27 nM 3H-QNB; 37° C., 30 min; E3 as hydrochloride salt, all others as oxalate salts.

As usually defined, the pIC50 is the negative decadic logarithm of the IC50, by convention in mol/L. On to `Nc1nncc(C2CN3CCC2CC3)n1` (racemic) [Example E6, (±)3-(3-Amino-1,2,4-triazin-5-yl)-1-azabicyclo[2.2.2]octane], for which the pIC50 was 7.96 on muscarinic receptors [1] and 5.63 at muscarinic receptors [2].
On to `Nc1nncc(C23CCCN(CC2)C3)n1` (racemic) [Example E2, (±) 5-(3-Amino-l,2,4-triazin-5-yl)-1-azabicyclo[3.2.1]octane], for which the pIC50 at muscarinic receptors [1] is 8.30; at muscarinic receptors [2] it was 5.95.
`Cc1nncc(C23CCCN(CC2)C3)n1` (racemic) [Example E1, (±) 5-(3-Methyl-l,2,4-triazin-5-yl)-1-azabicyclo[3.2.1]octane]: the pIC50 at muscarinic receptors [1] is 7.48; on muscarinic receptors [2], 5.74.
The corresponding values for `COc1nncc(C23CCN(CC2)C3)n1` [Example E5, 4-(3-Methoxy-1,2,4-triazin-5-yl)-1-azabicyclo[2.2.1]heptane] are 5.96 and 4.85.
Regarding `Cc1nncc([C@@H]2CN3CC[C@@H]2C3)n1` (relative stereo) [Example E8a, 3-(3-Methyl-1,2,4-triazin-5-yl) -1-azabicyclo[2.2.1]heptane], the pIC50 at muscarinic receptors [1] is 8.51; at muscarinic receptors [2] it was 6.59.
For the molecule `CCc1nncc([C@@H]2CN3CC[C@@H]2C3)n1` (relative stereo) [Example E10, (±) exo and endo 3-(3-Ethyl-1,2,4-triazin-5-yl) -1-azabicyclo[2.2.1]heptane], the pIC50 is 7.17 at muscarinic receptors [1] and 6.62 on muscarinic receptors [2].
Regarding `Cc1nncc(C23CCN(CC2)C3)n1` [Example E3, 4-(3-Methyl-1,2,4-triazin-5-yl)-1-azabicyclo[2.2.1]heptane], the values for the pIC50 on muscarinic receptors [1] and on muscarinic receptors [2] were 7.15 and 5.36, respectively.
`Nc1nncc(C23CCN(CC2)C3)n1` [Example E4, 4-(3-Amino-1,2,4-triazin-5-yl)-1-azabicyclo[2.2.1]heptane]: the values for the pIC50 at muscarinic receptors [1] and at muscarinic receptors [2] were 8.40 and 5.83, respectively.
On the same counts, the results for `Cc1nncc(C2CN3CCC2CC3)n1` (racemic) [Example E7, (±) 3-(3-Methyl-1,2,4-triazin-5-yl)-1-azabicyclo[2.2.2]octane] are 8.48 and 6.76.
Consider `Nc1nncc(C2CN3CCC2C3)n1` (racemic) [E9a & E9b, (±) exo and endo 3-(3-Amino-1,2,4-triazin-5-yl) -1-azabicyclo[2.2.1]heptane], for which the pIC50 was 8.96 at muscarinic receptors [1] and 6.49 on muscarinic receptors [2].
